For 23 compounds, Activity results are on record in ChEMBL document CHEMBL3244075, “Synthesis and hypoglycemic activity of some substituted 2-arylthiazolo[3,2-a]pyridinium salts” (J Med Chem, 1978).

For data set [1], the system named is Rattus norvegicus. Kind of data set: Hypoglycemic activity in 48 hrs-fasted rat assessed as change in blood glucose level at dose equivalent to 102 mg of free base/kg, po measured at 1 hr relative to control. The format is functional.
In data set [2] the test system is Rattus norvegicus. Kind of data set: Hypoglycemic activity in 48 hrs-fasted rat assessed as change in blood glucose level at dose equivalent to 102 mg of free base/kg, po measured at 2 hrs relative to control. The format is functional.
The test system of data set [3] is Rattus norvegicus. The data set can be described thus: Hypoglycemic activity in 48 hrs-fasted rat assessed as change in blood glucose level at dose equivalent to 68 mg of free base/kg, po measured at 3 hrs relative to control. The format is functional.
Data set [4] relates to Rattus norvegicus. Kind of data set: Hypoglycemic activity in 48 hrs-fasted rat assessed as change in blood glucose level at dose equivalent to 68 mg of free base/kg, po measured at 4 hrs relative to control. The format is functional.
Data set [5] concerns Rattus norvegicus. Kind of data set: Hypoglycemic activity in 48 hrs-fasted rat assessed as change in blood glucose level at dose equivalent to 68 mg of free base/kg, po measured at 5 hrs relative to control. The format is functional.
Data set [6] relates to Rattus norvegicus. Kind of data set: Hypoglycemic activity in 48 hrs-fasted rat assessed as change in blood glucose level at dose equivalent to 102 mg of free base/kg, po measured at 3 hrs relative to control. The format is functional.
The subject of data set [7] is Rattus norvegicus. Kind of data set: Hypoglycemic activity in 48 hrs-fasted rat assessed as change in blood glucose level at dose equivalent to 102 mg of free base/kg, po measured at 4 hrs relative to control. The format is functional.
For data set [8], the system named is Rattus norvegicus. Kind of data set: Hypoglycemic activity in 48 hrs-fasted rat assessed as change in blood glucose level at dose equivalent to 102 mg of free base/kg, po measured at 5 hrs relative to control. The format is functional.
The subject of data set [9] is Rattus norvegicus. Kind of data set: Toxicity in 48 hrs-fasted rat assessed as elevation in hepatic triglyceride level at dose equivalent to 102 mg of free base/kg, po relative to control. The format is organism-based. Conditions: in vivo.
For data set [10], the system named is Rattus norvegicus. Kind of data set: Hypoglycemic activity in 48 hrs-fasted rat assessed as change in blood glucose level at dose equivalent to 68 mg of free base/kg, po measured at 1 hr relative to control. The format is functional.
The test system of data set [11] is Rattus norvegicus. The data set can be described thus: Hypoglycemic activity in 48 hrs-fasted rat assessed as change in blood glucose level at dose equivalent to 68 mg of free base/kg, po measured at 2 hrs relative to control. The format is functional.
Data set [12] deals with Rattus norvegicus. Kind of data set: Toxicity in 48 hrs-fasted rat assessed as elevation in hepatic triglyceride level at dose equivalent to 34 mg of free base/kg, po relative to control. The conditions noted are these: in vivo. The format is organism-based.
In data set [13] the test system is Rattus norvegicus. Kind of data set: Toxicity in streptozotocin-induced diabetic rat model assessed as elevation in hepatic triglyceride level up to dose equivalent to 136 mg of free base/kg, po relative to control. The format is organism-based. The conditions noted are these: in vivo.
For data set [14], the species on record is Rattus norvegicus. The data set can be described thus: Hypoglycemic activity in streptozotocin-induced diabetic rat model. The format is functional, organism-based.
Data set [15] is filed under the species Rattus norvegicus. The data set can be described thus: Hypoglycemic activity in normal fed rat. The format is functional, organism-based.
The test system of data set [16] is Kidney. The data set can be described thus: Inhibition of glucose production from lactate in rat kidney cortex at 10^-4 M. The format is functional, tissue-based.
Data set [17] has as its system Rattus norvegicus. The data set can be described thus: Hypoglycemic activity in 48 hrs-fasted rat assessed as change in blood glucose level at dose equivalent to 34 mg of free base/kg, po measured at 5 hrs relative to control. The format is functional, organism-based.

The source made the active and inactive calls. No cut-off for these calls is given here.

Consider `O=C([O-])C(F)(F)F.c1ccc(-c2c[n+]3ccccc3s2)cc1`, for which the Activity in data set [1] is listed as -7%; in data set [2], -9%; in [3] it was -15%; in data set [4], -18%; in data set [5], -24%.
Regarding `O.[O-][Cl+3]([O-])([O-])[O-].c1ccc(-c2csc3cccc[n+]23)cc1`, the Activity is -12% in data set [1]; -16% in data set [2]; -28% in [6]; -12% in data set [7]; -19% in data set [8].
With `O.[Cl-].c1ccc(-c2ccc(-c3c[n+]4ccccc4s3)cc2)cc1`, the Activity in data set [1] is -7%; in data set [2] it was -12%; in data set [6], -12%; in data set [7] it was 13%; in data set [8], 3%.
Turning to `CC(=O)Nc1cccc(-c2c[n+]3ccccc3s2)c1.[O-][Cl+3]([O-])([O-])[O-]`, the Activity in [1] worked out at 12%; in data set [2], 8%; in [6], 3%; in [7], 9%; in data set [8], 4%.
Turning to `Cc1ccc[n+]2cc(-c3ccccc3)sc12.O.[O-][Cl+3]([O-])([O-])[O-]`, the Activity is recorded as -17% in data set [1]; -42% in data set [2]; -51% in data set [6]; -59% in [7]; -50% in [8]; 200% in data set [9].
Turning to `O.[Cl-].c1ccc(-c2c[n+]3ccccc3s2)cc1`, the Activity is on record as -4% in [10]; -13% in [11]; -31% in [3]; -39% in [4]; -39% in [5].
Regarding `CS(=O)(=O)c1ccc(-c2c[n+]3ccccc3s2)cc1.[O-][Cl+3]([O-])([O-])[O-]`, the Activity in data set [1] is reported as 3%; in [2] it was -8%; in [6] it was -6%; in [7], -6%; in data set [8], -2%.
`Brc1ccc(-c2c[n+]3ccccc3s2)cc1.O.O=S(=O)([O-])O`: the Activity in [1] is 9%; in data set [2], -4%; in data set [6] it was -1%; in data set [7] it was -5%; in [8], 1%.
As for `O.[Cl-].c1csc(-c2c[n+]3ccccc3s2)c1`, the Activity was 1% in data set [1]; -2% in [2]; -13% in [6]; -13% in data set [7]; 0% in data set [8].
Consider `Nc1cccc(-c2c[n+]3ccccc3s2)c1.[O-][Cl+3]([O-])([O-])[O-]`, for which the Activity in [1] is -10%; in data set [2] it was -16%; in [6] it was -8%; in [7] it was -7%; in data set [8], -8%.
For `O=S(=O)([O-])c1ccc(-c2c[n+]3ccccc3s2)s1`, the Activity is -6% in data set [1]; 5% in data set [2]; -5% in data set [6]; -6% in data set [7]; 6% in data set [8].
Take `Cc1cc[n+]2cc(-c3ccccc3)sc2c1.[O-][Cl+3]([O-])([O-])[O-]`: the Activity was 14% in data set [1]; -4% in [2]; -28% in [6]; -29% in data set [7]; -22% in data set [8].
On the same counts, the results for `CSc1ccc(-c2c[n+]3ccccc3s2)cc1.O.[O-][Cl+3]([O-])([O-])[O-]` are -9%, -11%, -14%, -6% and -2%.
The like results for `O=S(=O)([O-])c1ccc(-c2ccc(-c3c[n+]4ccccc4s3)cc2)cc1` were, in that order, 3%, 3%, 13%, 2% and 4%.
Turning to `[O-][Cl+3]([O-])([O-])[O-].c1cc[n+]2ccsc2c1`, the Activity in data set [1] is on record as -14%; in data set [2] it was -20%; in [6] it was -15%; in data set [7] it was -13%; in data set [8], -12%.
For the compound `CC(C)Oc1cccc(-c2c[n+]3ccccc3s2)c1.[O-][Cl+3]([O-])([O-])[O-]`, the Activity is 4% in data set [1]; -1% in data set [2]; -4% in [6]; 9% in [7]; -10% in data set [8].
As to `O.O=S(=O)([O-])O.O=[N+]([O-])c1cccc(-c2c[n+]3ccccc3s2)c1`, the Activity in [1] is -10%; in data set [2] it was -7%; in [6], -6%; in data set [7], -6%; in data set [8], 0%.
On to `Cc1ccc2sc(-c3ccccc3)c[n+]2c1.[O-][Cl+3]([O-])([O-])[O-]`, for which the Activity in data set [1] is 19%; in [2], -30%; in [6], -26%; in data set [7] it was -27%; in data set [8], -16%.
In the case of `Nc1ccc(-c2c[n+]3ccccc3s2)cc1.O.[O-][Cl+3]([O-])([O-])[O-]`, the Activity in data set [1] is listed as -8%; in [2] it was 1%; in [6], -20%; in [7], -7%; in [8], -14%.
For `O.O=S(=O)([O-])O.c1ccc(-c2c[n+]3ccccc3s2)cc1`, the Activity is recorded as -6% in data set [10]; -16% in [11]; -21% in [3]; -39% in data set [4]; -30% in [5].
On to `[O-][Cl+3]([O-])([O-])[O-].c1ccc(-c2c[n+]3ccccc3s2)cc1`, for which the Activity in data set [10] is reported as -4%; in [11], -8%; in [3], -17%; in [4], -33%; in data set [5], -28%; in data set [9] it was 200%. Also, the figures for the Activity result in [12] and in [13] were “Toxic” and “Non-toxic”, respectively.
As for `CN(C)/C=N/c1cccc(-c2c[n+]3ccccc3s2)c1.O.[O-][Cl+3]([O-])([O-])[O-]`, the Activity is reported as 1% in data set [1]; 0% in [2]; -1% in data set [6]; -1% in data set [7]; 22% in data set [8].
For `c1ccc(-c2c[n+]3ccccc3s2)cc1`, the outcome in data set [14], in data set [15], in data set [16] and in data set [17] was Active.
